Results from patent publication US20190167676A1, “METHODS FOR IMPROVING RESISTANCE TO SKELETAL MUSCLE FATIGUE” (Cytokinetics, Inc., priority 2012, published 2019).

What was measured:
rat EDL muscle [1] = test: Isometric tension and relaxation time in rat EDL muscle in situ; format: in vivo
Protocol: As with the in vitro FDB muscle studies, another predominately fast muscle fiber type, the extensor digitorum long us (EDL), was stimulated toward contractions in unconscious rats in situ. In these isometric muscle studies (measuring force at fixed length), force, time to peak contraction, time to half relaxation after cessation of stimulation (RT1/2) and baseline tension were determined. These studies have the advantage that the nerve and muscle pair were intact and had typical blood flow to the muscle under investigation.
Rats were placed under anesthesia using isoflurane and the skin around the experimental leg was removed. The distal end of the EDL muscle and its associated tendon were then isolated. The rat was then placed on the platform of an Aurora in-situ muscle analysis rig (806C), maintained at body temperature via a circulating water system. The knee was immobilized in a clamp between two sharpened screws and the distal tendon cut and tied to the arm of a force transducer (Aurora Scientific, Ontario, Canada) using a silk suture. The muscle was stimulated directly via the peroneal nerve. […] Muscle contractile properties were assessed by applying an electrical current to the nerve and recording the force generated by the muscle via a servomotor. […]

rat FDB muscle = test: Isometric fatigue protocol in isolated rat FDB muscle; details: 5 μM
Protocol: The isometric fatigue protocol was based on published studies (Germinario et al, 2004). Isolated rat FDB muscles were incubated at 4° C. with either 0.1% DMSO Krebs buffer or buffer containing 5 μM Compound A for 30 minutes. The tissues were then transferred to an isometric force transducer at 30° C. with the same concentration of DMSO or Compound A. Muscles were stimulated via field electrodes with supra maximal voltage to tetanus (120 Hz stimulation, 1 ms pulses, 350 ms duration) every minute and the length adjusted to achieve maximal tension development (Lo) which was recorded. The stimulation frequency was adjusted to achieve 50% of maximal force for each tissue: The average stimulation frequency required to achieve FMax 50% (mean +/− sd) for 0.1% DMSO was: 32.4 +/− 3.3 Hz, and for 5 μM Compound A it was 20.5 +/− 4.9 Hz. The muscles were then stimulated every six seconds for 15 minutes with field electrodes (1 ms stimulus, 350 ms trains) which produced a rapid drop in developed force over the course of 900 seconds for both the control fibers and Compound A fibers, with the control group showing a greater and more rapid drop in tension than the Compound A group.

fast skeletal troponin = fast skeletal troponin (Homo sapiens, UniProt P02585); details: isothermal titration calorimetry; cited from earlier work
Chain of fast skeletal troponin (P02585 whole entry): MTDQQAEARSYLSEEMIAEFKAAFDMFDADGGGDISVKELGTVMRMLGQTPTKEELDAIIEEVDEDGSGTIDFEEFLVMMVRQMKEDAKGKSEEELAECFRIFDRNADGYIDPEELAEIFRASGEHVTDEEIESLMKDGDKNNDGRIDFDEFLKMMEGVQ
Chain of fast skeletal troponin (P48788 whole entry partner): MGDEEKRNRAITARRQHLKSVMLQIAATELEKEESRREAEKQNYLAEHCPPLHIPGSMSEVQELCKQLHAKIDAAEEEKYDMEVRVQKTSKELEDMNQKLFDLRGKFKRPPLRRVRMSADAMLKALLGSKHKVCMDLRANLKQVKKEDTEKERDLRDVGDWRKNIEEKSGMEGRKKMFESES
Chain of fast skeletal troponin (P45378 whole entry partner): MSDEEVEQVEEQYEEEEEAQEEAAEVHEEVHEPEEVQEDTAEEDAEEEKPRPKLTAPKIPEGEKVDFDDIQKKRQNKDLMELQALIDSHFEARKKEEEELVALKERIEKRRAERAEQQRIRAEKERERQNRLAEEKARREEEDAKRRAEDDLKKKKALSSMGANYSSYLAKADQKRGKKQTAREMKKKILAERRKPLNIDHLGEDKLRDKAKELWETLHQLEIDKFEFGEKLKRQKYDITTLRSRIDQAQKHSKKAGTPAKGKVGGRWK

[2] = Plasma concentrations, Phase II study; format: in vivo, human
[3] = molecular target: T1, myofibrils from cardiac muscle (Homo sapiens, UniProt P63316); details: cited from earlier work
T1 construct: from tissue; host or cells: cardiac muscle myofibrils

[4] = tested on: patients with peripheral artery disease and claudication; test: 6-Minute Walk Test, Phase II study; format: in vivo, human; details: single doses 375, 500, 750 mg; 4 hours after dosing
Source text: This study was a double-blind, randomized, placebo-controlled, three-period cross-over, hypothesis generating Phase II study in patients with peripheral artery disease and claudication. […] Secondary objectives included (a) evaluation and characterization of the relationship, if any, between the doses and plasma concentrations of Compound A and its pharmacodynamic effects, and (b) evaluation of the safety and tolerability of Compound A administered as single doses.
Assessments include 1) Bilateral Heel Raise Test (as described below) using electrogoniometry at 3 and 6 hours after dosing, and 2) 6-Minute Walk Test at 4 hours after dosing. Results were analyzed using a repeated-measures ANCOVA with treatment, sequence, period, baseline, and patient in the model. In the event of model assumption violations, non-parametric methods were utilized

rat EDL muscle [5] = test: Fatigue in rat EDL muscle following femoral artery ligation (FAL); format: in vivo; details: for average stimulation frequency for force production similar to pre-dose: vehicle 30 Hz
Source text: Rats were placed under anesthesia using isoflurane and the skin around the experimental leg was removed. The distal end of the EDL muscle and its associated tendon were then isolated. The rat was then placed on the platform of an Aurora in-situ muscle analysis rig (806C), maintained at body temperature via a circulating water system. The knee was immobilized in a clamp between two sharpened screws and the distal tendon cut and tied to the arm of a force transducer (Aurora Scientific, Ontario, Canada) using a silk suture. The muscle was stimulated directly via the peroneal nerve. For isolation of the nerve, a 1 cm incision was made at the upper thigh and the overlying gastrocnemius muscle was cut to expose an approximate 5 mm stretch of the peroneal nerve. This was then dissected free of surrounding connective tissue and a pair of stainless steel needle electrodes (0.10 mm) were hooked around the exposed nerve. Muscle contractile properties were assessed by applying an electrical current to the nerve and recording the force generated by the muscle via a servomotor. The muscle length was adjusted to produce the maximum isometric force (Lo) after sub-maximal stimulation (30 Hz, 1 ms pulses, 350 ms train duration). Once Lo had been established, the nerve was stimulated every 2 minutes with a 30 Hz train (1 ms stimuli, 350 ms duration) for the course of the experiment. This preparation was stable for 4-6 hours.
With the rat in situ EDL muscle preparation described in Example 3, a fatiguing protocol was utilized where muscle was stimulated for 600 seconds. Vehicle-treated muscle was electrically stimulated at 30 Hz while the stimulation frequency was reduced in Compound A treated rats to ensure similar force production to pre-dose levels, prior to femoral artery ligation (average stimulation frequency of 29 and 26Hz, for 0.5 mg/kg and 1 mg/kg Compound A, respectively). This protocol produced a robust and reproducible fatigue in EDL muscle following femoral artery ligation, with a transient increase to 136.0±6.8% of initial force over the first 90-100 seconds, followed by a rapid drop in force before stabilization at approximately 40% of initial force. The initial rise in tension is believed to be due to Pi-induced increases in free intracellular Ca^2+ due to inhibition of sarco(endo)plasmic reticulum Ca^2+-ATPases (SERCAs) pumping into the SR (Allen, Physiol Rev 88:287-332, 2008). Following ligation of the femoral artery (R. A. Challiss et al. Biochem J. 1986 Dec. 1; 240(2):395-401) Compound A was administered in solution (50% PEG300/10% EtOH/40% Cavitron formulation) via a jugular vein catheter as a single slow bolus over a 2 min period.
Time for force to decrease to 50% of initial force was lengthened from 259±30 seconds to […] (P<0.0001, T-test).

[6] = stimulated every six seconds for 15 minutes

In the case of `C#Cc1cnc2nc(O)n(C(CC)CC)c2n1` [Compound A, 6-ethynyl-1-(pentan-3-yl)-1H-imidazo[4,5-b]pyrazin-2-ol], the “increase in relaxation time” value (rat EDL muscle [1]; 10 mg/kg) is reported as “approximately 3.5 fold”, the “sub-maximal and maximal force in situ” value (rat EDL muscle [1]; femoral artery catheter, dose escalation up to 10 mg/Kg) is reported as “increase in sub-maximal force without increasing maximal force” and the “average stimulation frequency required to achieve FMax 50% (mean +/- sd)” value (rat FDB muscle) is reported as 20.5 +/− 4.9 Hz. For the same molecule, the “force at 900 seconds, % of fMax” value (rat FDB muscle; [6]) was 28.4±1.2 % f Max, the “force at 900 seconds, % of initial tension” value (rat FDB muscle; [6]) was 53.9±2.1 % of initial tension and the Kd (fast skeletal troponin) was 40 nM. The “mean plasma concentrations vs dose” value ([2]; 375, 500, 750 mg single doses) was “relatively dose proportional increases”, the “mean plasma concentrations over 24-hour observation period” value ([2]; even at the 375 mg dose) was “remained within the pharmacologically active range” and the effect in myofibrils [3] was “little or no effect”. The “distance traversed during 6-Minute Walk Test” value [4] was “dose and concentration dependent decrease”, the “average stimulation frequency for force production similar to pre-dose” value (rat EDL muscle [5]; 0.5 mg/kg) was 29 Hz and the “average stimulation frequency for force production similar to pre-dose” value (rat EDL muscle [5]; 1 mg/kg) was 26 Hz. The “time of rise to initial increase in force” value (rat EDL muscle [5]; FAL rats) was 160 to 170 s, the “time to fatigue and tension-generating capacity” value (rat EDL muscle [5]; FAL rats vs vehicle, FIG. 5) was “dose-dependent increase” and the “initial increase in force” value (rat EDL muscle [5]; FAL rats, jugular vein bolus) was 156.3±10.4 % of initial force. For the same molecule, the “time for force to decrease to 50% of initial force” value (rat EDL muscle [5]; FAL rats, vehicle 259±30) was 752 ± 64 s.
